{"source": "patent US7071206B2", "about": "“Agents for treating neurodegenerative disorders” (Medivation, Inc., priority 1995, dated 2006)", "test_system": "patients suffering from Alzheimer's disease", "assay": "Clinical trial of dimebon tablets, inventors' scale (E. E. Bukatina et al.; 0 = absence of a symptom, 4 = greatest manifestation)", "format": "in vivo, human", "experimental": "The test was carried out under the direct supervision by two of the inventors, namely E. E. Bukatina and V. Grigorieva, in 14 patients who agreed to take part in the tests, 13 of whom lived in a boarding house for senile persons and one patient lived with their family.\nAlzheimer's disease was diagnosed on the basis of criteria ICD-10 NINCDS ADRDA.\nDimebon in the form of tablets (comprising 10 mg of dimebon, 30 mg of lactose, 5 mg of magnesium stearate was prescribed for oral administration in a dose of 0.02 g three to times a day. The patients living in the boarding house received dimebon for 58 days. A patient (observation 14) who was under outpatient observation continued taking the agent for a month after the completion of the tests.\nBefore the treatment with dimebon, and at 4 and 8 weeks after treatment the patients were examined according to Hazegawa's scale and the inventors' scale (“Social and Clinical Psychiatry”, 1992, No.4, pp.29–37) which includes the following indexes: (1) orientation in locality, time, immediate surroundings and one's own personality; (2) orientation in space; (3) memory for the past; (4) memory for the present; (5) “life in the past”; (6) (a) articulation, (b) difficulty in finding words, and distortion of words; (c) naming of objects; (d) following instructions; (7) concentration (of attention); (8) an affective sphere; (a) high spirits, (b) low spirits; (9) delirium; (10) hearing hallucinations; (11) visual hallucinations; (12) senile or senile-like confusion (when motion anxiety is accompanied by the revival of the past experience); (13) irritability; (14) anxiety; (15) asthenia; (16) headaches; (17) dizziness; (18) tearfulness; (19) spontaneous activity; (20) elementary self-service; and (21 control of sphincters.\nAccording to the Hazegawa's scale, the 0 score indicates the poorest result; on the contrary, according to the inventors' scale, the 0 score indicates the absence of a symptom 4 score indicates the greatest manifestation thereof. […] Before the therapy was started, the patients had been independently examined by two doctors who used the inventors' scale. The examination during the treatment was carried out by the doctors using both the scales. The evaluation according to all the inventors' scale points during all the tests and their variations during the treatment with dimebon are given in the Appendix.\nAccording to the inventors' scale, the degree of the disturbance if the cognitive functions was determined by a sum of evaluations according to the first 5 scale points reflecting the condition of memory, orientation and relation with the reality. The disturbance of speech was dealt with separately and was determined by a sum of evaluations according to items 6b-6d.\nBoth absolute evaluations of the signs under investigation (the evaluation prior to treatment is a mean evaluation of the two examinations) and variations in them were analysed in the course of therapy. In doing so, only those changes that were beyond the range of evaluations obtained in two pre-treatment examinations were taken into consideration.\nThe test results reflected the condition of the patients at the time of the examination. Any changes in the metal state observed in the interval between the tests and disappearing by the moment of examination according to the scale were described in the section “Clinical Observations”.\nThe statistical data processing was carried out by means of Student's t-test and Fisher's “Fi” criterion.", "key": {"[1]": {"settings": "score after 4 weeks, per patient, listed as dimebon"}, "[2]": {"settings": "score after 8 weeks, per patient, listed as dimebon"}}, "note": "Values joined by “and” are separate entries in the source; they are usually repeats but may differ in a detail not shown here. Identical values can stand only once. Marks after values point to notes of the source that are not given here.", "data": [{"molecule": "Cc1ccc2c(c1)c1c(n2CCc2ccc(C)nc2)CCN(C)C1", "note": "[No. 10, 2,8-dimethyl-5-[2-(6-methyl-3-pyridyl)ethyl]-2,3,4,5-tetrahydro-1H-pyrido[4,3-b]indole]", "values": [{"measurement": "share of patients with improvement of depression", "setting": "of 11 patients with depressive symptoms prior to treatment, 8 weeks", "value": 55, "unit": "%"}, {"measurement": "2. Orientation in space, 4 weeks", "setting": "[1]", "value": "0 (10×) and 1 and 1.5 (2×) and 0.5"}, {"measurement": "4. Memory for the present, 4 weeks", "setting": "[1]", "value": "1.5 and 2 (4×) and 1 (3×) and 3 (5×) and 3.5"}, {"measurement": "5. Life in the past, 4 weeks", "setting": "[1]", "value": "1 (2×) and 1.5 (2×) and 0.5 (2×) and 2.5 (3×) and 2 (4×) and 3"}, {"measurement": "6b. Difficulty in finding words, 4 weeks", "setting": "[1]", "value": "0 (9×) and 1 (2×) and 1.5 and 0.5 and 2"}, {"measurement": "6c. Naming of objects, 4 weeks", "setting": "[1]", "value": "0 (7×) and 1 (4×) and 2 (3×)"}, {"measurement": "7. Concentration, 4 weeks", "setting": "[1]", "value": "1.5 (2×) and 0 and 1 (3×) and 3 (4×) and 2 (3×) and 0.5"}, {"measurement": "8b. Lower spirits, 4 weeks", "setting": "[1]", "value": "1 (4×) and 0 (7×) and 0.5 (2×) and 2"}, {"measurement": "9. Delirium, 4 weeks", "setting": "[1]", "value": "0 (9×) and 1 (2×) and 2.5 and 1.5 and 2"}, {"measurement": "13. Irritability, 4 weeks", "setting": "[1]", "value": "0 (12×) and 2 and 1"}, {"measurement": "14. Anxiety, 4 weeks", "setting": "[1]", "value": "0 (10×) and 1 (4×)"}, {"measurement": "15. Asthenia, 4 weeks", "setting": "[1]", "value": "0 (11×) and 1 (2×) and 0.5"}, {"measurement": "16. Headache, 4 weeks", "setting": "[1]", "value": "0.5 and 0 (11×) and 1 and 3"}, {"measurement": "17. Dizziness, 4 weeks", "setting": "[1]", "value": "0.5 and 0 (8×) and 1 (2×) and 2 and 2.5 and 3"}, {"measurement": "18. Tearfulness, 4 weeks", "setting": "[1]", "value": "1 and 0 (13×)"}, {"measurement": "19. Spontaneous activity, 4 weeks", "setting": "[1]", "value": "1.5 and 1 (5×) and 0.5 and 2 (4×) and 0 (2×) and 3"}, {"measurement": "20. Elementary self-service, 4 weeks", "setting": "[1]", "value": "0 (13×) and 1"}, {"measurement": "6d. Performing instructions, 4 weeks", "setting": "[1]", "value": "1 (4×) and 0 (8×) and 0.5 and 2"}, {"measurement": "1. Orientation in locality and time, 8 weeks", "setting": "score after 8 weeks of treatment, per patient, listed as dimebon", "value": "2 (4×) and 3 (2×) and 1.5 (2×) and 0 and 0.5 (2×) and 1 (2×)"}, {"measurement": "18. Tearfulness, 8 weeks", "setting": "score after 8 weeks, per patient", "value": 0}, {"measurement": "2. Orientation in space, 8 weeks", "setting": "[2]", "value": "0 (11×) and 1.5 and 1"}, {"measurement": "4. Memory for the present, 8 weeks", "setting": "[2]", "value": "1 (4×) and 0.5 and 1.5 (2×) and 3 (4×) and 2 (2×) and 2.5"}, {"measurement": "5. Life in the past, 8 weeks", "setting": "[2]", "value": "0.5 (5×) and 1 (2×) and 3 (3×) and 1.5 and 2.5 (2×) and 2"}, {"measurement": "6b. Difficulty in finding words, 8 weeks", "setting": "[2]", "value": "0 (11×) and 1.5 and 2 (2×)"}, {"measurement": "6c. Naming of objects, 8 weeks", "setting": "[2]", "value": "0 (9×) and 1 (2×) and 2 (2×) and 1.5"}, {"measurement": "7. Concentration, 8 weeks", "setting": "[2]", "value": "1 (5×) and 0 and 3 and 2 (3×) and 3.5 and 2.5 and 4 and 0.5"}, {"measurement": "8b. Lower spirits, 8 weeks", "setting": "[2]", "value": "0.5 (2×) and 0 (7×) and 1 (4×) and 1.5"}, {"measurement": "9. Delirium, 8 weeks", "setting": "[2]", "value": "0 (9×) and 1.5 (2×) and 1 (2×) and 2"}, {"measurement": "13. Irritability, 8 weeks", "setting": "[2]", "value": "0 (12×) and +1 and 1"}, {"measurement": "14. Anxiety, 8 weeks", "setting": "[2]", "value": "0 (11×) and 1 (2×) and 0.5"}, {"measurement": "15. Asthenia, 8 weeks", "setting": "[2]", "value": "0 (13×) and 0.5"}, {"measurement": "16. Headache, 8 weeks", "setting": "[2]", "value": "0 (8×) and 1 (2×) and 2 and 1.5 and 0.5 and 3"}, {"measurement": "17. Dizziness, 8 weeks", "setting": "[2]", "value": "0 (8×) and 1.5 and 3 and 2 and 1 (3×)"}, {"measurement": "19. Spontaneous activity, 8 weeks", "setting": "[2]", "value": "1 (7×) and 1.5 and 0 (3×) and 2 (2×) and 4"}, {"measurement": "20. Elementary self-service, 8 weeks", "setting": "[2]", "value": "0 (13×) and 2"}, {"measurement": "6d. Performing instructions, 8 weeks", "setting": "[2]", "value": "1 (5×) and 2.5 and 0 (8×)"}, {"measurement": "Cognitive functions (first 5 scale points): improvements, %", "setting": "slight (by 0.5 score), 4 weeks", "value": "5.7* %"}, {"measurement": "Cognitive functions (first 5 scale points): improvements, abs.", "setting": "slight (by 0.5 score), 4 weeks", "value": "4*"}, {"measurement": "Speech functions (items 6b, c, d): improvements, %", "setting": "slight (by 0.5 score), 4 weeks", "value": 2.4, "unit": "%"}, {"measurement": "Speech functions (items 6b, c, d): improvements, abs.", "setting": "slight (by 0.5 score), 4 weeks", "value": 1}, {"measurement": "Cognitive functions (first 5 scale points): improvements, %", "setting": "slight (by 0.5 score), 8 weeks", "value": "25.7* %"}, {"measurement": "Cognitive functions (first 5 scale points): improvements, abs.", "setting": "slight (by 0.5 score), 8 weeks", "value": "18*"}, {"measurement": "Speech functions (items 6b, c, d): deteriorations, %", "setting": "slight (by 0.5 score), 8 weeks", "value": 2.4, "unit": "%"}, {"measurement": "Speech functions (items 6b, c, d): deteriorations, abs.", "setting": "slight (by 0.5 score), 8 weeks", "value": 1}, {"measurement": "Speech functions (items 6b, c, d): improvements, %", "setting": "slight (by 0.5 score), 8 weeks", "value": 7.14, "unit": "%"}, {"measurement": "Speech functions (items 6b, c, d): improvements, abs.", "setting": "slight (by 0.5 score), 8 weeks", "value": 3}, {"measurement": "Cognitive functions (first 5 scale points): improvements, %", "setting": "total, 4 weeks", "value": 11.4, "unit": "%"}, {"measurement": "Cognitive functions (first 5 scale points): improvements, abs.", "setting": "total, 4 weeks", "value": 8}, {"measurement": "Speech functions (items 6b, c, d): deteriorations, %", "setting": "total, 4 weeks", "value": 2.4, "unit": "%"}, {"measurement": "Speech functions (items 6b, c, d): deteriorations, abs.", "setting": "total, 4 weeks", "value": 1}, {"measurement": "Speech functions (items 6b, c, d): improvements, %", "setting": "total, 4 weeks", "value": 9.5, "unit": "%"}, {"measurement": "Speech functions (items 6b, c, d): improvements, abs.", "setting": "total, 4 weeks", "value": 4}, {"measurement": "Cognitive functions (first 5 scale points): improvements, %", "setting": "total, 8 weeks", "value": 34.3, "unit": "%"}, {"measurement": "Cognitive functions (first 5 scale points): improvements, abs.", "setting": "total, 8 weeks", "value": 24}, {"measurement": "Speech functions (items 6b, c, d): deteriorations, %", "setting": "total, 8 weeks", "value": 9.6, "unit": "%"}, {"measurement": "Speech functions (items 6b, c, d): deteriorations, abs.", "setting": "total, 8 weeks", "value": 4}, {"measurement": "Speech functions (items 6b, c, d): improvements, %", "setting": "total, 8 weeks", "value": 14.3, "unit": "%"}, {"measurement": "Speech functions (items 6b, c, d): improvements, abs.", "setting": "total, 8 weeks", "value": 6}, {"measurement": "Item 10. hearing hallucinations", "setting": "whole period of investigations, all patients", "value": "Item 10. No hearing hallucinations were observed throught the whole period of investigations."}]}]}
